As usually defined, the AC50 is the concentration giving half of the maximal activity seen. In general, EC50 refers to the midpoint of the concentration-response curve. Broadly, the CC50 is the concentration at which the toxic effect on the cells reaches its halfway point.

Here are results for 15 compounds from ChEMBL document CHEMBL1201862, “PubChem BioAssay data set” (2004).

Active and inactive are the calls of the source. Bounds are passed on as bounds.

Experiment [1] is described as follows: inhibition of ARNT PAS-B/TACC3 complex formation – biochemical, AlphaScreen, cherry-picked samples, confirmation (AID 651703).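 Note: His-tagged ARNT PAS-B domain paired with GST-TACC3 E629A dimer coactivator fragment; potency of inhibitors that break up the complex and lower AlphaScreen signal.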 Format: functional, Homo sapiens. (In general: In Alpha technology, singlet oxygen from a donor bead excites a nearby acceptor bead.)
In experiment [2] the target is T1, Heat shock factor protein 1 (Mus musculus, UniProt P38532).
T1 sequence (P38532 whole entry): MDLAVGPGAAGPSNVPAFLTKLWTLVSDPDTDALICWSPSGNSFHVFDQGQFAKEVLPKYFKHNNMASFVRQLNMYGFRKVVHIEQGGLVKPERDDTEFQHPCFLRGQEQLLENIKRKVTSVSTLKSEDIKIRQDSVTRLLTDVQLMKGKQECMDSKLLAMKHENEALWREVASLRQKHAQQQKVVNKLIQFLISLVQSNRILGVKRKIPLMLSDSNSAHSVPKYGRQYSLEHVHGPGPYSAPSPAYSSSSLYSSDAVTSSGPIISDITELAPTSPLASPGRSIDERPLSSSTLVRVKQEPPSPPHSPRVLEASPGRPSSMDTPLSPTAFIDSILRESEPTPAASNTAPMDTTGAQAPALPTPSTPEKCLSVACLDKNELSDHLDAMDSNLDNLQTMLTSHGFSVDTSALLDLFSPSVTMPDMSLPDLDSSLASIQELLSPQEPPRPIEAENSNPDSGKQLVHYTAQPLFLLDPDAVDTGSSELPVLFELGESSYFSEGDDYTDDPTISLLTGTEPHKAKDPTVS
The experiment in a line: decrease of HSF1-responsive luciferase luminescence – cell-based, NIH3T3, dose retest, confirmation (AID 2382).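 Note: NIH3T3 fibroblasts with HSF1-driven luciferase reporter stressed by proteasome inhibitor MG132; luminescence from HSF1-driven luciferase expression after 8 hours of MG132 stress.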 The experiment is classed as functional.

Experiment [3] can be described thus: bead-based luminescence quenchers, dual-tagged ARNT – biochemical, AlphaScreen, cherry-pick, artefact control for ARNT-TACC3 interaction inhibitor project, dose response (AID 651705).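 Note: AlphaScreen bead proximity signal that flags compounds interfering with the detection technology; potency reflects signal decrease which marks the compound as an assay artifact.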 Format: functional.
For experiment [4], the target named is Ras and Rab interactor 1/Tyrosine-protein kinase ABL1 (Homo sapiens, UniProt P00519+Q13671). Format: functional.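 Note: biochemical TR-FRET dose-response test measuring inhibition of binding between Rin1 and Abl proteins.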
Ras and Rab interactor 1/Tyrosine-protein kinase ABL1, sequence (P00519 whole entry): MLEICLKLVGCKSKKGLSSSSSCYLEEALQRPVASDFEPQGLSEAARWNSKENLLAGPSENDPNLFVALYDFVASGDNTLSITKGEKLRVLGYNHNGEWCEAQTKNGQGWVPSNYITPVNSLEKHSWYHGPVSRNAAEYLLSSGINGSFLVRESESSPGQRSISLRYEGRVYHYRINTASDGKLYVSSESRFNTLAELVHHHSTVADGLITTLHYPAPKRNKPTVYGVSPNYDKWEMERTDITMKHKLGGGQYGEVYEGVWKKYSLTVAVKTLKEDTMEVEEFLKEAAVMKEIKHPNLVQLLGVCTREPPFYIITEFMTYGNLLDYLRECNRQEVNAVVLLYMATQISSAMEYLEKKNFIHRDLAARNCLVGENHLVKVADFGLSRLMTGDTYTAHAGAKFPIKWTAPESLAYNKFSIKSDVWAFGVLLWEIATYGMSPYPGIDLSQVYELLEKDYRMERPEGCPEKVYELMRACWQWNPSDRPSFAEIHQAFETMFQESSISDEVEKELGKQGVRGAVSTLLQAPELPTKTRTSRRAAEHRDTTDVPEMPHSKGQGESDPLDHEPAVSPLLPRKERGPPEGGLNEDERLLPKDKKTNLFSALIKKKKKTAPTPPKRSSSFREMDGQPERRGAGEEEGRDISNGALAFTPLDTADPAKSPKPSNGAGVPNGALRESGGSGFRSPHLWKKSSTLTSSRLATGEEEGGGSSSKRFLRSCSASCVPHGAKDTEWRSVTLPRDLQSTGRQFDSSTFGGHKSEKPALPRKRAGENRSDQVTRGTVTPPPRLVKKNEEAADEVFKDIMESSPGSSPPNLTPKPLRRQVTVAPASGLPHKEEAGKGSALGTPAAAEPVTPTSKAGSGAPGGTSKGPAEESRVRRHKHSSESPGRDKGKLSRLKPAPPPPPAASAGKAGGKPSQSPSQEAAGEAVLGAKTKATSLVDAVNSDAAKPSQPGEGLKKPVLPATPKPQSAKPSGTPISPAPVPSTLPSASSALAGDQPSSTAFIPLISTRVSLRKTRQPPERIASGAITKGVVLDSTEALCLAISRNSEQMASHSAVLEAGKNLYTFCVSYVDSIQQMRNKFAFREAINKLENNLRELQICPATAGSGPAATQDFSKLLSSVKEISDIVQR
Ras and Rab interactor 1/Tyrosine-protein kinase ABL1, sequence (Q13671 whole entry): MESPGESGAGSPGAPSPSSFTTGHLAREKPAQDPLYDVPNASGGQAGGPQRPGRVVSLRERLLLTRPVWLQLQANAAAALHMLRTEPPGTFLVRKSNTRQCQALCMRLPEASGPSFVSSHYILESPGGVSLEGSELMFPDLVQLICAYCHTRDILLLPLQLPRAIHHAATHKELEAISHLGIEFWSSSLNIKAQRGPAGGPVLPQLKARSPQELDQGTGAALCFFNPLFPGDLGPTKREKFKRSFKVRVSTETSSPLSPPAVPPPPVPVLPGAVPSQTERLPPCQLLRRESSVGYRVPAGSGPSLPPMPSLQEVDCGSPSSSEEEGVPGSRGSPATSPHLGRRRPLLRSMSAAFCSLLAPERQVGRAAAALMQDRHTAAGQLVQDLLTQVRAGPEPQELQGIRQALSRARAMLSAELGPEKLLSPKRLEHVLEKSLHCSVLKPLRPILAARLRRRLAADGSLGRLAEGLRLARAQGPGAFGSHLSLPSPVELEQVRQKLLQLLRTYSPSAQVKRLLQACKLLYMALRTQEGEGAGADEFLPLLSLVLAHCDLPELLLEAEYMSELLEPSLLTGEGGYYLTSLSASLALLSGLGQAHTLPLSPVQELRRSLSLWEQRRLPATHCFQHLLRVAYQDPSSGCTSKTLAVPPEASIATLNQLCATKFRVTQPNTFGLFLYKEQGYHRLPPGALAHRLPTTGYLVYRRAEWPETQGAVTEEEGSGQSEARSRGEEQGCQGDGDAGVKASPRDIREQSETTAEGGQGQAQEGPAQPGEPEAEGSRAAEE
Experiment [5] addresses T2, Interleukin-8 (Homo sapiens, UniProt P10145).
T2 sequence (P10145 whole entry): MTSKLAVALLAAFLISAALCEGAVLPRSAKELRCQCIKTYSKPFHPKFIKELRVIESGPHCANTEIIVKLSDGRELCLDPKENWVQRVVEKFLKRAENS
The experiment in a line: Dose Response confirmation of uHTS small molecule hits for cystic fibrosis induced NFkb Inhibitors in a TNFa-induced IL8 counterscreen. The experiment is classed as functional. To be noted: read-out: IC50_Mean. (Counterscreens check selectivity or assay interference.)

Experiment [6] has as its target T2, Interleukin-8. Briefly: Dose Response confirmation of uHTS small molecule hits for cystic fibrosis induced NFkb Inhibitors in a PAF-induced IL8 counterscreen. The experiment is classed as functional. Conditions: read-out: IC50_Mean.
Experiment [7] deals with DNA dC->dU-editing enzyme APOBEC-3A (Homo sapiens, UniProt P31941). The experiment in a line: SAR analysis of small molecule inhibitors of APOBEC3A DNA Deaminase via a fluorescence-based single-stranded DNA deaminase assay. The experiment is classed as functional. To be noted: read-out: IC50_Mean.
DNA dC->dU-editing enzyme APOBEC-3A, sequence (P31941 whole entry): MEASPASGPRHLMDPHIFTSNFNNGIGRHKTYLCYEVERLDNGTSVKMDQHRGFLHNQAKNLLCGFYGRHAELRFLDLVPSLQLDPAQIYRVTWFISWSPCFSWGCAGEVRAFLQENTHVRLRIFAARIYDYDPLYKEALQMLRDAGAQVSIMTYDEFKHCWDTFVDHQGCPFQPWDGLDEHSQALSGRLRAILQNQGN
In experiment [8] the target is DNA dC->dU-editing enzyme APOBEC-3G (Homo sapiens, UniProt Q9HC16). Briefly: inhibition of APOBEC3G ssDNA deamination – biochemical, fluorescence, single-stranded DNA substrate, SAR follow-up (AID 602136). Format: functional. Conditions: read-out: IC50_Mean.
DNA dC->dU-editing enzyme APOBEC-3G, sequence (Q9HC16 whole entry): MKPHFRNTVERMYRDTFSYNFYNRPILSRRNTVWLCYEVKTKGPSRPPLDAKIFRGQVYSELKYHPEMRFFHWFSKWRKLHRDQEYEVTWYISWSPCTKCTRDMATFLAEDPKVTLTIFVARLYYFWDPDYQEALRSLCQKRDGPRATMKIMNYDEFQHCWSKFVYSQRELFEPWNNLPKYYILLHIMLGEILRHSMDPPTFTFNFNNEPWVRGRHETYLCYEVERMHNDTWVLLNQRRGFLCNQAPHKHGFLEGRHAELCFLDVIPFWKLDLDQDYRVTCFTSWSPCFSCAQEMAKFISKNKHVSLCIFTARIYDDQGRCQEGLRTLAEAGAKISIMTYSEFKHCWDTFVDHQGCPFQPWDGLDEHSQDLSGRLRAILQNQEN
The test system of experiment [9] is BJ. Briefly: growth inhibition of engineered Ras-driven BJ cells – cell-based, alamar blue fluorescence, cherrypicked samples, dose response (AID 2631).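 Note: confirmatory dose-response assay in RAS-dependent BJ fibroblasts engineered with TERT, LT and ST, with cytotoxicity read by fluorescence.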 The experiment is classed as functional. Conditions: Homo sapiens. On the technique in general: Alamar Blue is a resazurin reagent that responds to reducing activity.
In experiment [10] the target is T3, Oxysterols receptor LXR-beta (Homo sapiens, UniProt P55055).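 Note: Cell-based luminescence dose-response assay of agonist activity at LXR, run as a confirmatory counterscreen to a daf-12 agonist screen; HEK293 cells with Gal4-LXR fusion and GAL4-driven luciferase reporter; agonist potency from rising luciferase signal of a Gal4-LXR reporter.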
T3 sequence (P55055 whole entry): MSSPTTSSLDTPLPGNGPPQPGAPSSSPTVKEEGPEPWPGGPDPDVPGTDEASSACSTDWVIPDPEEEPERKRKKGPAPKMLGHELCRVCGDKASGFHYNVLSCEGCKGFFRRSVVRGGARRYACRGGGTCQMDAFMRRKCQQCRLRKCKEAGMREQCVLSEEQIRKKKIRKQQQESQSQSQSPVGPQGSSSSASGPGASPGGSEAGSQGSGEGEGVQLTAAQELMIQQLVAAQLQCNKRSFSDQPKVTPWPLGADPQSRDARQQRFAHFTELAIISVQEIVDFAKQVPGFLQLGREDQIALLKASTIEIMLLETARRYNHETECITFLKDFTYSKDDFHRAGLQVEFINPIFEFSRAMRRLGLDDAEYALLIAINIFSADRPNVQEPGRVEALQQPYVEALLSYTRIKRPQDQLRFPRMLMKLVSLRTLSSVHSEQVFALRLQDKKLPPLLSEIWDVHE
The experiment is classed as functional, cell-based.

Experiment [11] deals with BJ. The experiment in a line: BJ-TERT fibroblast viability loss – cell-based, RAS-independent, luminescence, dose response (AID 1933). Format: functional. Conditions: Homo sapiens.
The nature of experiment [12]: DRD fibroblast viability loss – cell-based, non-viral oncogenic, luminescence, dose response (AID 1934). The experiment is classed as functional. To be noted: Homo sapiens.
Experiment [13] relates to BJ. The experiment in a line: BJ-TERT-LT-ST fibroblast viability loss – cell-based, RAS-independent, luminescence, dose response (AID 1935).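 Note: BJ fibroblasts immortalized with TERT plus LT and ST oncogenes.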 Format: functional. To be noted: Homo sapiens.
Experiment [14] relates to BJ. The experiment in a line: cells. The experiment is classed as functional, cell-based. To be noted: Homo sapiens.
Another experiment deals with T4, Streptokinase A (Streptococcus pyogenes serotype M1, UniProt P10520).
T4 sequence (P10520 whole entry): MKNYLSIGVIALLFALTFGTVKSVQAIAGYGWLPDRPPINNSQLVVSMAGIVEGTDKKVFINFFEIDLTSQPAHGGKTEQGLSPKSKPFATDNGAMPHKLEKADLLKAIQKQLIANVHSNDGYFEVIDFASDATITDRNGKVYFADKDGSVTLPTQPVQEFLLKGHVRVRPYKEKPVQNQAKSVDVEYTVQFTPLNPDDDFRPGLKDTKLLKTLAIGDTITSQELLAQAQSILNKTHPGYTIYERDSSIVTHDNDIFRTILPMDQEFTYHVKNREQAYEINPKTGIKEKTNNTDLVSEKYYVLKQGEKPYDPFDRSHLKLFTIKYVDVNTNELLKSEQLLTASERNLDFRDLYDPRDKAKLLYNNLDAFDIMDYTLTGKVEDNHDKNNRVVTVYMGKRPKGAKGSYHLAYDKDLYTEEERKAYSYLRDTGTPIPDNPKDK
Briefly: viability-normalized secreted streptokinase activity reduction – plasminogen activation absorbance, OD405, dose response (AID 1914).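 Note: secreted streptokinase activity via plasminogen activation per viability signal from cell pellet.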 Format: functional, Streptococcus pyogenes M1 GAS.

Experiment [15] concerns Streptococcus sp. 'group A'. The experiment in a line: Streptococcus pyogenes SK(-)GAS viability under kanamycin – luminescence, BacTiterGlo, confirmation, counter-screen for streptokinase expression inhibitor project, dose response (AID 1900). Format: functional, organism-based.
In the next experiment the test system is Streptococcus. The experiment in a line: GAS UMAA2166 growth inhibition – luminescence, BacTiterGlo, counter-screen for streptokinase expression inhibitor project, dose response (AID 1915).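 Note: potency for reduction of bacterial viability or growth.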 Format: functional, organism-based.
A further experiment addresses Steroidogenic factor 1 (Homo sapiens, UniProt Q13285). Briefly: Counterscreen for inverse agonists of the liver receptor homolog-1 (LRH-1; NR5A2): Luminescence-based cell-based high throughput dose response assay to identify inverse agonists of the Steroidogenic Factor 1 Nuclear Receptor (SF1; NR5A1). The experiment is classed as functional.
The nature of experiment [16]: nonselective StAR promoter luciferase inhibitors – cell-based, luminescence, luciferase reporter, counter-screen for LRH-1 inverse agonist project, dose response (AID 651969). Format: functional.
Experiment [17] has as its target Nuclear receptor subfamily 5 group A member 2 (Homo sapiens, UniProt O00482). Format: functional, cell-based.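 Note: HEK293T cells transfected with LRH-1 and a StAR promoter luciferase reporter; potency for inhibitors that lower LRH-1 driven reporter light.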
Experiment [18] in a line: luciferase reporter signal suppression in cells – H4 neuroglioma cells, luminescence, dose response (AID 1990). Format: functional, cell-based.
Experiment [19] can be described thus: Luminescence Cell-Based Dose Response HTS to Identify Inhibitors of 5'UTR Stem-Loop Driven Prion Protein mRNA Translation in H4 Neuroglioblastoma Cells. [Related pubchem assays: 1827 (Project Summary), 1813 (Primary HTS)]. Format: functional.
Experiment [20] can be described thus: alpha-synuclein stem-loop luciferase translation blockers – H4 neuroglioma cells, luminescence, confirmation (AID 1988). Format: functional, cell-based.
The nature of experiment [21]: HEK-293T viability loss after treatment – luminescence, T-cell screen hits, cytotoxicity control for TCR NF-kB inhibitor project, dose response (AID 489026).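 Note: cells exposed to compound about 14 hours before the viability readout.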 Format: functional, cell-based.
A short description of experiment [22]: viability loss in THP-1 monocytes – THP-1 cells, cytotoxicity control for Vif-APOBEC3G degradation inhibitor project, dose response (AID 1117359). The experiment is classed as functional. Conditions: THP-1.
For experiment [23], the target named is Mitochondrial peptide methionine sulfoxide reductase (Bos taurus, UniProt P54149). Briefly: Absorbance-based biochemical high throughput dose response assay for activators of Methionine sulfoxide reductase A (MsrA). The experiment is classed as functional.
Mitochondrial peptide methionine sulfoxide reductase, sequence (P54149 whole entry): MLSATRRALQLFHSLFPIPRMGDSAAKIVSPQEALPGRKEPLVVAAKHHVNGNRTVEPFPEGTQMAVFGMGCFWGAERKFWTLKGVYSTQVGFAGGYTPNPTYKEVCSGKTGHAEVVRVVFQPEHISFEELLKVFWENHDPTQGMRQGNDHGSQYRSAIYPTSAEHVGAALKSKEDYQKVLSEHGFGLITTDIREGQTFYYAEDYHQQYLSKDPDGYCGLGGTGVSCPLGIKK
For experiment [24], the target named is T5, Low molecular weight phosphotyrosine protein phosphatase (Homo sapiens, UniProt P24666).
T5 sequence (P24666 whole entry): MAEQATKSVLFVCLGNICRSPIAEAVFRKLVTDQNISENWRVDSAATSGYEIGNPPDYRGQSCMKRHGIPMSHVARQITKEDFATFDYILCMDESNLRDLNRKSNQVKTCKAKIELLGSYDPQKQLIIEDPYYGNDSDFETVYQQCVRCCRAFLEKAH
The experiment is classed as functional. To be noted: read-out: IC50_Mean.

Experiment [25] has as its target T5, Low molecular weight phosphotyrosine protein phosphatase. The experiment is classed as functional. Conditions: read-out: IC50_Mean. The source holds these as a separate data set.

Steroidogenic factor 1, sequence (Q13285 whole entry): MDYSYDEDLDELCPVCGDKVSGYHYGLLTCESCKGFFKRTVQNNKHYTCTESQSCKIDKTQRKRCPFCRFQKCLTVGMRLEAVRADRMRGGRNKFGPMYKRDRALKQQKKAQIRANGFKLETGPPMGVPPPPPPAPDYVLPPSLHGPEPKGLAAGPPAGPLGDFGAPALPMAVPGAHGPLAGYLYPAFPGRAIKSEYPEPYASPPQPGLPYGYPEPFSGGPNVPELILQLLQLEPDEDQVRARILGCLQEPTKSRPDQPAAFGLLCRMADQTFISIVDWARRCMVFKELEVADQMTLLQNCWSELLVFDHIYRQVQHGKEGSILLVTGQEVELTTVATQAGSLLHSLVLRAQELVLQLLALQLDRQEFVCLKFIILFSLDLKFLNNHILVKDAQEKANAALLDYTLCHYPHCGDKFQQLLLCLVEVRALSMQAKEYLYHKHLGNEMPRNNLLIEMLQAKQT
Nuclear receptor subfamily 5 group A member 2, sequence (O00482 whole entry): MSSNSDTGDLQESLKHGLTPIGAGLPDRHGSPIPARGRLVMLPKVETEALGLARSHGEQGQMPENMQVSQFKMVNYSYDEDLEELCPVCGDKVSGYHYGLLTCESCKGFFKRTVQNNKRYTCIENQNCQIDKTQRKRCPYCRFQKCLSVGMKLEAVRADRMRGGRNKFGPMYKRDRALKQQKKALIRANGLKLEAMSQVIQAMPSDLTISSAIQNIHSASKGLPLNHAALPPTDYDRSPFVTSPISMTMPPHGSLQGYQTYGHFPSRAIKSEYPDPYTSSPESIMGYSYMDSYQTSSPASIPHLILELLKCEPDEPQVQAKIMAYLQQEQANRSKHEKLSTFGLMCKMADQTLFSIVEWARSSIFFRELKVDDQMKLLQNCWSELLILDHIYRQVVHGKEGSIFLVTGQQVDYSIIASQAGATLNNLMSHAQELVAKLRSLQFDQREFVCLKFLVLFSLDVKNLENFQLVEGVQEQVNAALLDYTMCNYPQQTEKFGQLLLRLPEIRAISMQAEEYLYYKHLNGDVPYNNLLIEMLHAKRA

For the compound `O=C(CN(Cc1ccccc1Cl)S(=O)(=O)c1ccc(Cl)cc1)N/N=C/c1ccc(C(=O)O)cc1`, the half-maximal activity concentration (AC50) in experiment [1] was 78.3 µM (active); in [3], 84 µM (active). Further, the half-maximal effective concentration (EC50) in [2] is given as > 195 µM (not active).
Turning to `C[C@]12CC[C@H](O)C[C@@H]1CC(=O)[C@@H]1[C@@H]2CC[C@]2(C)C(=O)CC[C@@H]12`, the IC50 in experiment [4] is 33.8 µM (inactive).
Regarding `CS(=O)(=O)c1ccc2nc(NC(=O)CCS(=O)(=O)c3ccccc3)sc2c1`, the results for the IC50 on Interleukin-8 [5] and at Interleukin-8 [6] were 1.5 µM (active) and 1.36 µM (active), respectively.
Regarding `CCCn1c(=O)c2ccccc2n2c(SCC(=O)NCc3ccccc3)nnc12`, the IC50 in [7] and in experiment [8] was > 99 µM (inactive) in each case.
`COc1cccc(NC(=O)n2ncc3c(C)cccc32)c1`: the EC50 in the experiment with BJ [9] is > 133 µM (inactive); in experiment [10], > 67.5 µM (inactive); in the experiment “cells”, > 67.5 µM (inactive); in the experiment with BJ [11] it was 11.5 µM (active); in experiment [12] it was 6.62 µM (active); with BJ [13], 18.2 µM (active). The EC50 with BJ [14] is 8.05 µM (active).
As to `CN1CCN(C(=O)CSc2nc(-c3ccncc3)ccc2C#N)CC1`, the IC50 in experiment [4] is 39 µM (inactive).
In the case of `COc1ccc(-c2c[nH]nc2-c2ccc(OC)cc2)cc1`, the EC50 at Streptokinase A was > 150 µM (not active); in experiment [15], 3.33 µM (active); in the experiment on Streptococcus, 8.74 µM (active). For the same compound, the results for the IC50 at Interleukin-8 [5] and on Interleukin-8 [6] were 3.57 µM (active) and 5.39 µM (active), respectively.
On to `CCOc1ccccc1Nc1nc(Cl)nc(Nc2ccccc2OCC)n1`, for which the IC50 in experiment [7] and in experiment [8] was > 99 µM (inactive) throughout.
On to `CCC(C)(C)n1nnnc1CN1CCC(O)(c2cccc(C(F)(F)F)c2)CC1`, for which the IC50 at Steroidogenic factor 1 was 12.4 µM (inactive); in [16], 35.9 µM (inactive); in [17], 9.63 µM (active).
Take `NS(=O)(=O)c1ccc(CCNC(=O)COc2ccc3c4c(c(=O)oc3c2)CCC4)cc1`: the IC50 (on Steroidogenic factor 1; in experiment [16]; in experiment [17]) was 35.9 µM (inactive) each time.
For the compound `CC1=CC(C)(C)N(S(=O)(=O)c2ccc(C)cc2)c2cc(C)ccc21`, the EC50 in experiment [18] is 4.98 µM (inconclusive); in the experiment with BJ [9], 0.353 µM (active); in the experiment on BJ [11] it was 1.34 µM (active); in experiment [12], 1.95 µM (active); with BJ [13] it was 1.3 µM (inconclusive); with BJ [14], 2.65 µM (active). Also, the EC50 in experiment [19] was 9.84 µM (active); in [20], 4.44 µM (inconclusive). For the same compound, the IC50 in experiment [21] is > 80 µM (inactive).
Consider `O=[N+]([O-])c1cc(Br)c(O)c(/C=N/c2ccc(N3CCOCC3)cc2)c1`, for which the half-maximal cytotoxic concentration (CC50) in [22] was > 40 µM (active). Further, the EC50 in experiment [23] was > 104 µM (inactive).
As for `COCCNc1nc(NCc2ccc(NC(C)=O)cc2)c2sccc2n1`, the IC50 in experiment [24] was 15.4 µM (active); in [25] it was 17.5 µM (active).
On to `O=C(CSc1nnc2scc(-c3ccccc3)n12)Nc1ccccc1F`, for which the IC50 in experiment [7] and in experiment [8] was > 99 µM (inactive) each time.
In the case of `CC1=CC(C)(C)N(C(=O)C(C)N2C(=O)c3ccccc3C2=O)c2ccc(C)cc21` (stereo not given), the AC50 in [1] is 119 µM (active).
